The values that follow are results of earlier work, collected in US20240307504A1, “INTRANASAL FORMULATIONS AND DELIVERY OF SOMATOSTATIN MIMETICS AND USES THEREOF” (NBO PHARMA LLC, priority 2021, published 2024).

Like-named read-outs stand apart in the source and are kept apart here.

For the compound `C[C@@H](O)[C@@H]1NC(=O)[C@H](CCCCN)NC(=O)[C@@H](Cc2c[nH]c3ccccc23)NC(=O)[C@H](Cc2ccccc2)NC(=O)[C@@H](NC(=O)[C@H](N)Cc2ccccc2)CSSC[C@@H](C(=O)N[C@H](CO)[C@@H](C)O)NC1=O` [Octreotide], the biological half-life is 72 minutes (after intravenous administration) and 102 minutes (after subcutaneous administration).

On to “L-alanyl-glycyl-L-cysteinyl-L-lysyl-L-asparagyl-L-phenylalanyl-L-phenylalanyl-L-tryptophyl-L-lysyl-L-threonyl-L-phenylalanyl-L-threonyl-L-seryl-L-cysteine (3->14)-disulfide [somatostatin]”, for which, under “in vivo”, the biological half-life was 2-3 minutes.
